In patent US20080125432A1 (Devgen NV, priority 2004, published 2008):
Read-outs that look alike come from different tables or passages of the source.

Target: T1, hERG potassium channel (Homo sapiens, UniProt Q12809)
T1 construct: host or cells: HEK 293 T-REx
Assay: Whole cell patch clamp, HEK 293 T-REx HERG cells
Assay type: cell-based
Text: For this experiment HEK 293 T-REx HERG cells (#23) were used. This cell line made by IonGate is characterized by the inducible expression of the hERG gene. The T-REx™ System (Invitrogen, Karlsruhe, Germany) is a tetracycline-regulated mammalian expression system that uses regulatory elements from the E. coli Tn10-encoded tetracycline (Tet) resistance operon. In the absence of Tet the expression is repressed. Tetracycline regulation in the T-REx™ System is based on the binding of tetracycline to the Tet repressor and derepression of the promoter controlling expression of the hERG gene. Addition of Tet to the cell culture media results in expression of the hERG potassium channel.
To construct the HEK 293 T-REx HERG cell line, the hERG gene was ligated into the inducible expression vector pcDNA4/TO (→pc4TO-HERG) and transfected into HEK 293 T-REx cells (this cell line stably expresses the Tet repressor and was purchased at Invitrogen). Stable cell clones were isolated after selection with Blasticidin (5 μg/ml) and Zeocin™ (300 μg/ml). The clones were electrophysiological characterized after induction with 1 μg/ml Tet.
Experiments were performed using the patch clamp set-up. Technical equipment needed for manipulation of the cells was placed on a vibration-isolated table and shielded with a Faraday cage to minimize electrical noise. The amplifier and control system were placed in a rack outside the Faraday cage. The system consisted of an EPC9 or EPC10 patch clamp amplifier (HEKA, Lambrecht, Germany), and the perfusion system DADVC8 (ALA Scientific, New York, USA) controlled by the Pulse software package (HEKA, Lambrecht, Germany) installed on a personal computer.
The cells used for this experiment were kept in continuous culture under standard conditions (37° C., air supplemented with 5% CO2). The HEK 293 T-REx HERG cells were kept in minimal essential medium (MEM) supplemented with 100 U/ml Penicillin, 100 μg/ml Streptomycin, 10% fetal calf serum (FCS), 1% non-essential amino acids (NEAA), 2.5 μg/ml amphotericin, 300 μg/ml Zeocin™ and 5 μg/ml Blasticidin. Cells were passed every 3-4 days after detachment using a Trypsin solution. The quality of the cultured cells was guaranteed by vitality and contamination tests. The culture of the cells was performed as described in protocol D described above.
At least 18 hours prior to electrophysiological experiments the cells were detached by application of iced PBS (phosphate buffered saline) or Trypsin and replated on cover slips. 1 μg/ml Tet was added to the cells to induce hERG expression.
Activity of the cardiac hERG channel was investigated using the patch clamp technique in its whole cell mode. This means that the current needed for clamping the whole cell expressing the K^+-channel protein to a specific potential was measured. The pipettes used for patch clamping were made of borosilicate glass. Measurements were performed at room temperature (20-25° C.). In each experiment (i.e. each cell) only one concentration of the compound was investigated no cumulative dosages were performed. Each cell acted as its own control. […]
After the whole cell configuration was established a series of pulses was applied to check for hERG expression and to optimize amplifier settings. However, only the following measurements were used for data analysis: 15 test pulses (FIG. 4a and Table 6a) were applied at 0.1 Hz (series 1) under constant superfusion with bath solution. The protocol was initiated by a leak test at −40 mV (50 ms). […] The maximum hERG tail current amplitude was measured at −40 mV (tail current test, 1.5 sec.). Only cells generating tail current amplitudes between 300 pA and 10 nA were used for the experimental procedure.
After successful characterization of the current another 10 test pulses were applied at 0.1 Hz while the cell was superfused with bath solution (series 2). […]

[1] = estimated by Hill fit with hill=1, ymax=100, tested at 10 μM, n=2, read-out: IC50 (μM) hERG
[2] = patch clamp, read-out: hERG IC50
[3] = percent value, test concentration not given

T1 sequence (Q12809 whole entry): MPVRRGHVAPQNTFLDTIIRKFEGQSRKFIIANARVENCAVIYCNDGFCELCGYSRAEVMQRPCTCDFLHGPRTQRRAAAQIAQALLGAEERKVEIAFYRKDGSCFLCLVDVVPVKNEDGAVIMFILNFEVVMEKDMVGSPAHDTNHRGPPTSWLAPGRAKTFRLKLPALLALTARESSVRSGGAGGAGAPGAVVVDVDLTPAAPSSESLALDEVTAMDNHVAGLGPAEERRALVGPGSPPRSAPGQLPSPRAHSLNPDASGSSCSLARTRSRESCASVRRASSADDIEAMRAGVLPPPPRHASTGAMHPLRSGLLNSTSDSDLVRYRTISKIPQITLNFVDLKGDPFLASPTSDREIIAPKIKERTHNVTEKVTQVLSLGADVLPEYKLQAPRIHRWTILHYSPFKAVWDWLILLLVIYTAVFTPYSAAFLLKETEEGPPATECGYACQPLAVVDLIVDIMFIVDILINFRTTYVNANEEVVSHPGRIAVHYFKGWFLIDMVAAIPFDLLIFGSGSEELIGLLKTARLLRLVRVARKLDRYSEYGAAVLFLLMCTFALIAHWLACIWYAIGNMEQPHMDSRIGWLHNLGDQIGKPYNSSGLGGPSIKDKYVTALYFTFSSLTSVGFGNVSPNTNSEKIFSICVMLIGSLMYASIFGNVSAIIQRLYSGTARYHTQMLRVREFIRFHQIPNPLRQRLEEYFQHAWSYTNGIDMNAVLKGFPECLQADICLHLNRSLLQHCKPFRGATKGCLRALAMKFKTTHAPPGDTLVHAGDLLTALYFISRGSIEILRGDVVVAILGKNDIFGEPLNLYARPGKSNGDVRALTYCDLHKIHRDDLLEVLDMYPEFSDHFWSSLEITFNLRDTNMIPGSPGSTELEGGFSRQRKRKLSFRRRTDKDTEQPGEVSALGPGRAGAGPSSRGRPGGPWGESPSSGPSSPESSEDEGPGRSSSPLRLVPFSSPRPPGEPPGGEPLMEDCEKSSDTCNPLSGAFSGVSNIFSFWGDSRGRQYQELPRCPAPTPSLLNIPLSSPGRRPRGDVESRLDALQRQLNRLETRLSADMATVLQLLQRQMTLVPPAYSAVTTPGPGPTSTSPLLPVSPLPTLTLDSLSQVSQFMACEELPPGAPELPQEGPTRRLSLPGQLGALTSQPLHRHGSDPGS

Molecule	IC50 [1] [µM]	hERG [3] [%]	further results
2-(4-bromo-phenylamino)-4-methyl-thiazole-5-carboxylic acid 1,2,3,4-tetrahydroisoquinolinamide [Compound 66]	9.88		IC50 [2]: 9.88 µM
Cc1nc(Nc2ccc(F)cc2)sc1C(=O)N[C@H](C)c1ccc2ccccc2c1 [Compound 16, 2-(4-fluoro-phenylamino)-4-methyl-thiazole-5-carboxylic acid (R)-1-(naphthalen-2-yl)ethyl amide]	28		
Cc1nc(Nc2ccc(Br)cc2)sc1C(=O)N[C@@H](C)c1ccc2ccccc2c1 [Compound 18, 2-(4-bromo-phenylamino)-4-methyl-thiazole-5-carboxylic acid (S)-1-(naphthalen-2-yl)ethyl amide]	26.5		
Cc1nc(Nc2ccc(Br)cc2)sc1C(=O)N[C@H](C)c1ccc2ccccc2c1 [Compound 19, 2-(4-bromo-phenylamino)-4-methyl-thiazole-5-carboxylic acid (R)-1-(naphthalen-2-yl)ethyl amide]	90		
Cc1nc(Nc2ccc(Cl)cc2)sc1C(=O)N[C@@H]1CCC[C@H]1OCc1ccccc1 [Compound 30, 2-(4-chloro-phenylamino)-4-methyl-thiazole-5-carboxylic acid (1R,2R)-2-(benzyloxycyclopent-1-yl) amide]	11		IC50 [2]: 11 µM
COc1ccccc1Nc1nc(C)c(C(=O)N[C@@H]2CCC[C@H]2OCc2ccccc2)s1 [Compound 31, 2-(2-methoxy-phenylamino)-4-methyl-thiazole-5-carboxylic acid (1R,2R)-2-(benzyloxycyclopent-1-yl) amide]	25.3		
COc1ccc(OC)c(Nc2nc(C)c(C(=O)N[C@@H]3CCC[C@H]3OCc3ccccc3)s2)c1 [Compound 33, 2-(2,5-dimethoxyphenylamino)-4-methylthiazole-5-carboxylic acid (1R,2R)-2-(benzyloxycyclopent-1-yl) amide]	33.5		
COc1cccc([C@@H](C)NC(=O)c2sc(Nc3cc(Cl)ccc3OC)nc2C)c1 [Compound 34]	8.73		
Cc1nc(Nc2ccc(Cl)cc2)sc1C(=O)N[C@H](C)c1ccc2ccccc2c1 [Compound 52, 2-(4-chloro-phenylamino)-4-methyl-thiazole-5-carboxylic acid (R)-1-(2-naphtalen-2-yl-ethyl)-amide]	24.2		IC50 [2]: 24.2 µM
Cc1nc(Nc2ccc(Cl)cc2)sc1C(=O)N[C@@H](C)c1ccc2ccccc2c1 [Compound 54, 2-(4-chloro-phenylamino)-4-methyl-thiazole-5-carboxylic acid (S)-1-(2-naphtalen-2-yl-ethyl)-amide]	15.8		IC50 [2]: 15.8 µM
COc1ccccc1Nc1nc(C)c(C(=O)N[C@@H](C)c2ccc3ccccc3c2)s1 [Compound 55, 2-(2-methoxy-phenylamino)-4-methyl-thiazole-5-carboxylic acid (S)-1-(2-naphtalen-2-yl-ethyl)-amide]	10.2		
Cc1nc(Nc2ccc(Br)cc2)sc1C(=O)NCc1cccc2ccccc12 [Compound 56, 2-(4-bromo-phenylamino)-4-methyl-thiazole-5-carboxylic acid (naphtalen-1-yl-methyl)-amide]	7.04		IC50 [2]: 7.04 µM
COc1ccc(CNC(=O)c2sc(Nc3ccc(Br)cc3)nc2C)cc1 [Compound 60, 2-(4-bromo-phenylamino)-4-methyl-thiazole-5-carboxylic acid 4-methoxy-benzylamide]	3		
Cc1nc(Nc2ccc(Br)cc2)sc1C(=O)NCc1ccc(F)c(C(F)(F)F)c1 [Compound 63, 2-(4-bromo-phenylamino)-4-methyl-thiazole-5-carboxylic acid 4-fluoro-3-trifluoromethyl-benzylamide]	5.29		
Cc1nc(Nc2ccc(Br)cc2)sc1C(=O)NCc1ccc(N(C)C)cc1 [Compound 64, 2-(4-bromo-phenylamino)-4-methyl-thiazole-5-carboxylic acid 4-dimethylamino-benzylamide]	> 100		IC50 [2]: > 100 µM
COc1cc(CNC(=O)c2sc(Nc3ccc(Br)cc3)nc2C)cc(OC)c1 [Compound 65, 2-(4-bromo-phenylamino)-4-methyl-thiazole-5-carboxylic acid 3,5-dimethoxy-benzylamide]	1.63		
COc1ccccc1Nc1nc(C)c(C(=O)N[C@H]2CCC[C@@H]2OCc2ccccc2)s1 [Compound 68, 2-(2-methoxy-phenylamino)-4-methyl-thiazole-5-carboxylic acid (1S,2S)-2-(benzyloxycyclopent-1-yl) amide]	7.95		
COc1ccccc1Nc1ccc(C(=O)N[C@H]2CCC[C@@H]2OCc2ccccc2)s1 [Compound 75, 2-(2-methoxy-phenylamino)-thiophene-5-carboxylic acid ((1S,2S)-2-benzyloxycyclopent-1-yl) amide]		76	
COc1ccccc1Nc1nccc(C(=O)N[C@H]2CCC[C@@H]2OCc2ccccc2)n1 [Compound 76, 2-(2-methoxy-phenylamino)-pyrimidine-4-carboxylic acid ((1S,2S)-2-benzyloxycyclopent-1-yl) amide]		34	
Cc1nc(Sc2ccccc2)sc1C(=O)N[C@H]1CCC[C@@H]1OCc1ccccc1 [Compound 81, 4-methyl-2-phenylsulfanyl-thiazole-5-carboxylic acid ((1S,2S)-2-benzyloxycyclopent-1-yl) amide]		88	
Cc1nc(Nc2cccc3ccccc23)sc1C(=O)N[C@H]1CCC[C@@H]1OCc1ccccc1 [Compound 93]		59	
Cc1nc(Nc2cccc3cccnc23)sc1C(=O)N[C@H]1CCC[C@@H]1OCc1ccccc1 [Compound 94, 4-methyl-2-(quinolin-8-ylamino)-thiazole-5-carboxylic acid ((1S,2S)-2-benzyloxycyclopent-1-yl) amide]		69	
Cc1nc(Nc2ccc3c(c2)OCCO3)sc1C(=O)N[C@H]1CCC[C@@H]1OCc1ccccc1 [Compound 95]		76	
COc1ccccc1Nc1nc(C)c(C(=O)NCc2ccccc2SC)s1 [Compound 97]		55	
COc1ccccc1Nc1nc(C)c(C(=O)NCc2c(C)cccc2Cl)s1 [Compound 98, 2-(2-methoxy-phenylamino)-4-methyl-thiazole-5-carboxylic acid 2-chloro-6-methyl-benzylamide]		38	
COc1ccccc1Nc1nc(C)c(C(=O)NCc2ccc3c(c2)CCO3)s1 [Compound 104, 2-(2-methoxy-phenylamino)-4-methyl-thiazole-5-carboxylic acid (2,3-dihydro-benzofuran-5-ylmethyl)-amide]		43	
COc1ccccc1Nc1nc(C)c(C(=O)NCc2ccc(N(C)C)cc2)s1 [Compound 105, 2-(2-methoxy-phenylamino)-4-methyl-thiazole-5-carboxylic acid 4-dimethylamino-benzylamide]		67	
COc1ccccc1Nc1nc(C)c(C(=O)NCc2ccc(C(C)(C)C)cc2)s1 [Compound 106, 2-(2-methoxy-phenylamino)-4-methyl-thiazole-5-carboxylic acid 4-tert-butyl-benzylamide]		31	
COc1ccccc1Nc1nc(C)c(C(=O)NCc2ccc(Br)cc2)s1 [Compound 108, 2-(2-methoxy-phenylamino)-4-methyl-thiazole-5-carboxylic acid 4-bromo-benzylamide]		19	
Cc1nc(Nc2ccc3occc3c2)sc1C(=O)N[C@H]1CCC[C@@H]1OCc1ccccc1 [Compound 126, 2-(benzofuran-5-ylamino)-4-methyl-thiazole-5-carboxylic acid ((1S,2S)-2-benzyloxycyclopent-1-yl) amide]			hERG (at 1 μM): 74 at1 μM
